Values of other authors, collected in patent publication US9809617B2, “Crystal form of regadenoson and preparation method thereof” (Shanghai Ziyuan Pharmaceutical Co., Ltd., priority 2015, dated 2017).

Conditions: heat / humidity, as described for U.S. Pat. No. 7,732,595

Structure (SMILES) | stability of crystal form (in words)
CCNC(=O)c1cnn(-c2nc(N)c3ncn(C4O[C@H](CO)[C@@H](O)[C@H]4O)c3n2)c1 (stereo partly drawn) [amorphous form of regadenoson] | unstable in atmospheric moisture
CCNC(=O)c1cnn(-c2nc(N)c3ncn(C4O[C@H](CO)[C@@H](O)[C@H]4O)c3n2)c1 (stereo partly drawn) [crystal form C] | unstable after losing crystal water under a high temperature
CCNC(=O)c1cnn(-c2nc(N)c3ncn(C4O[C@H](CO)[C@@H](O)[C@H]4O)c3n2)c1 (stereo partly drawn) [Crystal form A] | stable under heating under relative humidity stress conditions up to its melting point
